# Experimental data published in PubChem BioAssay (NCI).
#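 Step 1: Grow cells in 96-well plates. Step 2: Expose to compound for 48 hours at 5 concentrations. Step 3: Interpolate endpoints linearly; if unreached, use highest concentration. GI50 marks 50% less growth. TGI: total growth inhibition.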
# Columns and labels:
# Assay in all cases: DTP human tumour cell line panel, 48 h
# [1] = test system: IGROV1 ovarian
# [2] = test system: NCI/ADR-RES ovarian
# [3] = test system: PC-3 prostate
# [4] = test system: A549 NSCLC
# [5] = test system: SNB-75 CNS
# [6] = test system: MDA-MB-435
# [7] = test system: HOP-92 NSCLC
# [8] = test system: NCI-H460 lung
# [9] = test system: MALME-3M melanoma
# [10] = test system: OVCAR-4 ovarian
# [11] = test system: DU-145 prostate
# [12] = test system: COLO 205 colon
# [13] = test system: HOP-62 NSCLC
# [14] = test system: RXF 393 renal
# [15] = test system: SK-MEL-28 melanoma
# [16] = test system: KM12 colon
# [17] = test system: OVCAR-5 ovarian
# [18] = test system: SR leukemia
# [19] = test system: UO-31 renal
# [20] = test system: HCT-116 colon
# [21] = test system: HL-60(TB) leukemia
# [22] = test system: OVCAR-3 ovarian
# [23] = test system: HCT-15 colon
# [24] = test system: OVCAR-8 ovarian
# [25] = test system: SF-539 CNS
# [26] = test system: CAKI-1 renal
# [27] = test system: CCRF-CEM leukemia
# [28] = test system: SNB-19 CNS
# [29] = test system: SK-MEL-5 melanoma
# [30] = test system: K-562 leukemia
# [31] = test system: U251 CNS
# [32] = test system: NCI-H226 lung
# [33] = test system: BT-549 breast
# [34] = test system: TK-10 renal
# [35] = test system: UACC-257 melanoma
# [36] = test system: HT29 colon
# [37] = test system: HCC-2998 colon
# [38] = test system: A498 renal
# [39] = test system: MDA-MB-231 breast
# [40] = test system: EKVX NSCLC
# [41] = test system: UACC-62 melanoma
# [42] = test system: 786-0 renal
# [43] = test system: SK-OV-3 ovarian
# [44] = test system: SF-295 CNS
# [45] = test system: ACHN renal
# [46] = test system: SK-MEL-2 melanoma
# [47] = test system: SW-620 colon
# [48] = test system: HS 578T breast
# [49] = test system: LOX IMVI melanoma
# [50] = test system: RPMI-8226 leukemia
# [51] = test system: MCF7 breast
# [52] = test system: NCI-H522 lung
# [53] = test system: M14 melanoma
# [54] = test system: T-47D breast
# [55] = test system: SF-268 CNS
# [56] = test system: SN12C renal
# [57] = test system: NCI-H23 lung
# [58] = test system: MOLT-4 leukemia
compound,measurement,setting,value
Cc1ccc2c(n1)C(=O)C(Cl)=C(Nc1ccccc1C(=O)OC(C)(C)C)C2=O,GI50,[1],1.73 µM
same,TGI,[1],3.43 µM
same,GI50,[2],2.17 µM
same,TGI,[2],5.35 µM
same,GI50,[3],1.78 µM
same,TGI,[3],4.19 µM
same,GI50,[4],44.5 µM
same,TGI,[4],> 100 µM
same,GI50,[5],14.7 µM
same,TGI,[5],> 100 µM
same,GI50,[6],1.71 µM
same,TGI,[6],3.19 µM
same,GI50,[7],1.53 µM
same,TGI,[7],2.89 µM
same,GI50,[8],3.08 µM
same,TGI,[8],11.3 µM
same,GI50,[9],1.66 µM
same,TGI,[9],3.27 µM
same,GI50,[10],1.4 µM
same,TGI,[10],2.78 µM
same,GI50,[11],1.77 µM
same,TGI,[11],3.32 µM
same,GI50,[12],1.77 µM
same,TGI,[12],3.48 µM
same,GI50,[13],3.59 µM
same,TGI,[13],18.3 µM
same,GI50,[14],1.62 µM
same,TGI,[14],2.99 µM
same,GI50,[15],1.66 µM
same,TGI,[15],3.12 µM
same,GI50,[16],6.07 µM
same,TGI,[16],50.4 µM
same,GI50,[17],2.05 µM
same,TGI,[17],4.1 µM
same,GI50,[18],0.442 µM
same,TGI,[18],7.86 µM
same,GI50,[19],1.42 µM
same,TGI,[19],2.74 µM
same,GI50,[20],1.61 µM
same,TGI,[20],3.15 µM
same,GI50,[21],0.394 µM
same,TGI,[21],1.9 µM
same,GI50,[22],1.31 µM
same,TGI,[22],2.96 µM
same,GI50,[23],1.37 µM
same,TGI,[23],3.32 µM
same,GI50,[24],2.83 µM
same,TGI,[24],9.32 µM
same,GI50,[25],1.7 µM
same,TGI,[25],3.18 µM
same,GI50,[26],1.55 µM
same,TGI,[26],2.9 µM
same,GI50,[27],0.425 µM
same,TGI,[27],> 100 µM
same,GI50,[28],3.3 µM
same,TGI,[28],15.4 µM
same,GI50,[29],1.59 µM
same,TGI,[29],2.98 µM
same,GI50,[30],0.549 µM
same,TGI,[30],> 100 µM
same,GI50,[31],2.42 µM
same,TGI,[31],6.81 µM
same,GI50,[32],6.77 µM
same,TGI,[32],> 100 µM
same,GI50,[33],2.9 µM
same,TGI,[33],9.04 µM
same,GI50,[34],1.81 µM
same,TGI,[34],3.28 µM
same,GI50,[35],1.69 µM
same,TGI,[35],3.3 µM
same,GI50,[36],2.94 µM
same,TGI,[36],8.52 µM
same,GI50,[37],1.75 µM
same,TGI,[37],3.27 µM
same,GI50,[38],12.4 µM
same,TGI,[38],47.8 µM
same,GI50,[39],1.58 µM
same,TGI,[39],3.26 µM
same,GI50,[40],1.59 µM
same,TGI,[40],3.01 µM
same,GI50,[41],1.82 µM
same,TGI,[41],3.98 µM
same,GI50,[42],1.69 µM
same,TGI,[42],3.22 µM
same,GI50,[43],> 100 µM
same,TGI,[43],> 100 µM
same,GI50,[44],4.25 µM
same,TGI,[44],22.5 µM
same,GI50,[45],1.75 µM
same,TGI,[45],3.14 µM
same,GI50,[46],2.27 µM
same,TGI,[46],6.78 µM
same,GI50,[47],1.84 µM
same,TGI,[47],6.26 µM
same,GI50,[48],2.39 µM
same,TGI,[48],7.54 µM
same,GI50,[49],1.02 µM
same,TGI,[49],2.31 µM
same,GI50,[50],1.78 µM
same,TGI,[50],5.9 µM
same,GI50,[51],0.813 µM
same,TGI,[51],3.58 µM
same,GI50,[52],1.83 µM
same,TGI,[52],3.86 µM
same,GI50,[53],1.73 µM
same,TGI,[53],3.38 µM
same,GI50,[54],1.84 µM
same,TGI,[54],4.91 µM
same,GI50,[55],3.06 µM
same,TGI,[55],14.7 µM
CN1CCN(Cc2ccc(NC(=O)c3cncc(C#Cc4cnc5ccc(OCC(C)(C)O)nn45)c3)cc2C(F)(F)F)CC1,GI50,[1],0.167 µM
same,TGI,[1],1.06 µM
same,GI50,[2],1.64 µM
same,TGI,[2],4.68 µM
same,GI50,[3],0.332 µM
same,TGI,[3],1.75 µM
same,GI50,[56],0.153 µM
same,TGI,[56],0.864 µM
same,GI50,[4],0.317 µM
same,TGI,[4],1.09 µM
same,GI50,[5],0.21 µM
same,TGI,[5],0.572 µM
same,GI50,[6],0.207 µM
same,TGI,[6],0.698 µM
same,GI50,[7],0.0385 µM
same,TGI,[7],0.225 µM
same,GI50,[8],0.297 µM
same,TGI,[8],0.851 µM
same,GI50,[9],0.127 µM
same,TGI,[9],0.37 µM
same,GI50,[10],0.217 µM
same,TGI,[10],1.04 µM
same,GI50,[11],0.26 µM
same,TGI,[11],0.786 µM
same,GI50,[12],0.178 µM
same,TGI,[12],0.349 µM
same,GI50,[13],0.23 µM
same,TGI,[13],0.667 µM
same,GI50,[14],0.181 µM
same,TGI,[14],0.392 µM
same,GI50,[15],0.237 µM
same,TGI,[15],0.726 µM
same,TGI,[16],0.83 µM
same,GI50,[17],0.295 µM
same,TGI,[17],1.2 µM
same,GI50,[18],0.249 µM
same,TGI,[18],0.852 µM
same,GI50,[19],0.339 µM
same,TGI,[19],1.06 µM
same,GI50,[20],0.17 µM
same,TGI,[20],0.889 µM
same,GI50,[21],0.264 µM
same,TGI,[21],0.873 µM
same,GI50,[23],0.287 µM
same,TGI,[23],0.929 µM
same,GI50,[24],0.304 µM
same,TGI,[24],1.05 µM
same,GI50,[25],0.117 µM
same,TGI,[25],0.403 µM
same,GI50,[26],0.183 µM
same,TGI,[26],0.528 µM
same,GI50,[27],0.336 µM
same,TGI,[27],12.5 µM
same,GI50,[28],0.356 µM
same,TGI,[28],1.36 µM
same,GI50,[29],0.775 µM
same,TGI,[29],2.05 µM
same,TGI,[30],1.85 µM
same,GI50,[31],0.329 µM
same,TGI,[31],1.12 µM
same,GI50,[32],0.148 µM
same,TGI,[32],1.34 µM
same,GI50,[33],0.386 µM
same,TGI,[33],1.22 µM
same,GI50,[57],0.185 µM
same,TGI,[57],0.478 µM
same,GI50,[34],0.226 µM
same,TGI,[34],0.55 µM
same,GI50,[35],0.318 µM
same,TGI,[35],1.2 µM
same,GI50,[36],0.203 µM
same,TGI,[36],0.91 µM
same,GI50,[37],0.334 µM
same,TGI,[37],1.02 µM
same,GI50,[38],0.199 µM
same,TGI,[38],0.395 µM
same,GI50,[39],0.114 µM
same,TGI,[39],0.548 µM
same,GI50,[40],0.257 µM
same,TGI,[40],0.997 µM
same,GI50,[41],0.199 µM
same,TGI,[41],0.843 µM
same,GI50,[42],0.323 µM
same,TGI,[42],0.96 µM
same,GI50,[43],0.378 µM
same,TGI,[43],1.16 µM
same,GI50,[58],0.269 µM
same,TGI,[58],1.41 µM
same,GI50,[44],0.726 µM
same,TGI,[44],2.06 µM
same,GI50,[45],0.295 µM
same,TGI,[45],1.06 µM
same,GI50,[46],0.177 µM
same,TGI,[46],0.349 µM
same,GI50,[47],0.202 µM
same,TGI,[47],0.585 µM
same,GI50,[48],0.156 µM
same,TGI,[48],0.578 µM
same,GI50,[49],0.146 µM
same,TGI,[49],0.3 µM
same,GI50,[50],0.344 µM
same,TGI,[50],1.38 µM
same,GI50,[51],0.146 µM
same,TGI,[51],0.897 µM
same,GI50,[52],0.179 µM
same,TGI,[52],0.37 µM
same,GI50,[53],0.139 µM
same,TGI,[53],0.305 µM
same,GI50,[54],0.369 µM
same,TGI,[54],1.91 µM
same,GI50,[55],0.18 µM
same,TGI,[55],0.448 µM
